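In this assay, cells in 96-well plates receive the compound at five concentrations for 48 hours. Endpoints are linearly interpolated between the surrounding concentrations. Here, GI50 denotes the concentration required for 50% inhibition of growth.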 Active and inactive are the calls of the source. Rule as the data show it: active = GI50 up to about 1.1 µM and inactive = higher.
What was measured:
Test in all cases: NCI-60 cell line screen, 48 h
[1] = tested on: MDA-MB-231
[2] = tested on: U-251
[3] = tested on: SR
[4] = tested on: HCT-116
[5] = tested on: UACC-257
[6] = tested on: PC-3
[7] = tested on: OVCAR-3
[8] = tested on: MDA-MB-435
[9] = tested on: SNB-19
[10] = tested on: Malme-3M
[11] = tested on: KM12
[12] = tested on: A549
[13] = tested on: M14
[14] = tested on: SF-268
[15] = tested on: TK-10
[16] = tested on: T47D
[17] = tested on: SK-MEL-2
[18] = tested on: OVCAR-5
[19] = tested on: HCT-15
[20] = tested on: SN12C

Row | SMILES | GI50 [1] | GI50 [2] | GI50 [3] | GI50 [4] | GI50 [5] | GI50 [6] | GI50 [7] | GI50 [8] | GI50 [9] | GI50 [10] | GI50 [11] | GI50 [12] | GI50 [13] | GI50 [14] | GI50 [15] | GI50 [16] | GI50 [17] | GI50 [18] | GI50 [19] [µM] | GI50 [20]
1 | CN(NC(=O)c1cccs1)C1=NCCCCN1 | > 100 µM (inactive) | > 100 µM (inactive) | > 100 µM (inactive) | > 100 µM (inactive) | > 100 µM (inactive) | > 100 µM (inactive) | > 100 µM (inactive) | > 100 µM (inactive) | > 100 µM (inactive) | > 100 µM (inactive) | > 100 µM (inactive) | > 100 µM (inactive) | > 100 µM (inactive) | > 100 µM (inactive) | > 100 µM (inactive) | > 100 µM (inactive) | > 100 µM (inactive) | > 100 µM (inactive) | > 100 | 
2 | COc1cc([C@@H]2c3cc4c(cc3[C@@H](Nc3ccc([N+](=O)[O-])cc3C(=O)c3ccccc3)[C@H]3COC(=O)[C@H]23)OCO4)cc(OC)c1OC | 0.548 µM (active) | 0.354 µM (active) | 0.177 µM (active) | 0.23 µM (active) |  | 0.344 µM (active) | 0.434 µM (active) | 0.071 µM (active) | 0.603 µM (active) | 0.481 µM (active) | 0.266 µM (active) | 0.446 µM (active) | 0.281 µM (active) | 0.472 µM (active) | > 100 µM (inactive) | > 100 µM (inactive) | 3.28 µM (inactive) | 0.555 µM (active) | 0.269 | 0.416 µM (active)
3 | O=c1cc(O)c2c(O)cc(O)cc2o1 | > 100 µM (inactive) | > 100 µM (inactive) | > 100 µM (inactive) | > 100 µM (inactive) | > 100 µM (inactive) | > 100 µM (inactive) | > 100 µM (inactive) | > 100 µM (inactive) | > 100 µM (inactive) | > 100 µM (inactive) |  | > 100 µM (inactive) | > 100 µM (inactive) | > 100 µM (inactive) | > 100 µM (inactive) | > 100 µM (inactive) | > 100 µM (inactive) | > 100 µM (inactive) | > 100 | > 100 µM (inactive)
4 | CCOC(=O)CC(=O)Nc1cccc2nc[nH]c12 | > 100 µM (inactive) | > 100 µM (inactive) | > 100 µM (inactive) | > 100 µM (inactive) | > 100 µM (inactive) | > 100 µM (inactive) | > 100 µM (inactive) | > 100 µM (inactive) | > 100 µM (inactive) | > 100 µM (inactive) | 51.8 µM (inactive) | > 100 µM (inactive) | > 100 µM (inactive) | 98.2 µM (inactive) |  | > 100 µM (inactive) | > 100 µM (inactive) | > 100 µM (inactive) | > 100 | > 100 µM (inactive)
5 | CCc1ccccc1/N=N/C(=O)NNc1ccccc1CC | 21.3 µM (inactive) | 16.1 µM (inactive) | 23.2 µM (inactive) | 15.3 µM (inactive) | 18.9 µM (inactive) | 16.4 µM (inactive) | 18.7 µM (inactive) | 24.4 µM (inactive) | 25.8 µM (inactive) | 17.6 µM (inactive) |  | 14.9 µM (inactive) | 16.9 µM (inactive) | 17.3 µM (inactive) | 22.1 µM (inactive) | 6.78 µM (inactive) | 17.5 µM (inactive) | 14.9 µM (inactive) | 18.5 | 18.5 µM (inactive)
6 | CSc1ccc(NC(=S)NN(C)C)cc1 | > 10 µM (inactive) | > 10 µM (inactive) | > 10 µM (inactive) | > 10 µM (inactive) | > 10 µM (inactive) | > 10 µM (inactive) | > 10 µM (inactive) | > 10 µM (inactive) | > 10 µM (inactive) | > 10 µM (inactive) | > 10 µM (inactive) | > 10 µM (inactive) | > 10 µM (inactive) | > 10 µM (inactive) | > 10 µM (inactive) | > 10 µM (inactive) | > 10 µM (inactive) |  | > 10 | > 10 µM (inactive)

— ChEMBL document CHEMBL1201862, “PubChem BioAssay data set” (2004)
